Experimental data reported in ChEMBL document CHEMBL5728513, “Substituted isoindolin-1-ones and 2,3-dihydro-1h-pyrrolo[3,4-c]pyridin-1-ones as hpk1 antagonists” (2021).

Target: Mitogen-activated protein kinase kinase kinase kinase 1 (Homo sapiens, UniProt Q92918)
Assay: Biochemical Enzyme Assay: HPK1 biochemical enzyme assay: HPK1 enzyme inhibition was measured using a microfluidic mobility shift assay. […] Test compounds were titrated in ten point curves (top final assay concentration […]), and preincubated with enzyme/substrate mix for 30 min prior to initiation of the reaction by addition of ATP (1 mM final concentration) and substrate (1 Î¼M final concentration; Carna Biosciences) diluted in assay buffer supplemented by MgCl2 (final assay concentration of 5 mM). Following 60 min incubation at RT, the reaction was terminated by addition of 60 µl/well termination buffer (Carna Biosciences) and signal determination using a Caliper EZ Reader (Perkin Elmer, UK).

Sequence of Mitogen-activated protein kinase kinase kinase kinase 1 (Q92918 whole entry): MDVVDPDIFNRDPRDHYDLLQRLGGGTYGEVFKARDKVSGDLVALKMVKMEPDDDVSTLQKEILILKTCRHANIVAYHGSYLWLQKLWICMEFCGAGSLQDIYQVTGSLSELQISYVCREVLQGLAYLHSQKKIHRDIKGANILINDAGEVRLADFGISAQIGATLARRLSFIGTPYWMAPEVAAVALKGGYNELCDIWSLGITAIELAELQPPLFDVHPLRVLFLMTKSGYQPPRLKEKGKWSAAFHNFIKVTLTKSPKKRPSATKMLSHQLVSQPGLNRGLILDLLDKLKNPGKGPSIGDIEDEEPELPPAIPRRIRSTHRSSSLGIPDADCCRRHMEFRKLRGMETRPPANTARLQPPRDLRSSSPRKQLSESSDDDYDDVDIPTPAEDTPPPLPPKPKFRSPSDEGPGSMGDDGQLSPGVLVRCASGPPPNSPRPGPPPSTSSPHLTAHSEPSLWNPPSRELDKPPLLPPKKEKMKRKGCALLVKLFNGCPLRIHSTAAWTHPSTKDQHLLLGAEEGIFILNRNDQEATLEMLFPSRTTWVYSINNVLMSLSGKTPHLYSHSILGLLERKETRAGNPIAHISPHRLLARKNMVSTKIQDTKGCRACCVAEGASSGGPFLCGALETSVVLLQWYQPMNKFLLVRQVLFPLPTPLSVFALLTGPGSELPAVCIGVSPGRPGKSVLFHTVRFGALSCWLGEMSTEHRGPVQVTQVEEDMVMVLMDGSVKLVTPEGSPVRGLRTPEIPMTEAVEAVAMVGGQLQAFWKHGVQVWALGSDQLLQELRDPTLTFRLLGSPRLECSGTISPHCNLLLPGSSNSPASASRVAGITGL

Row | SMILES | IC50
1 | CCN(C)Cc1nc(Nc2ccc(-c3cnc4cc(F)ccn34)c3c2C(=O)NC3)ccc1[C@@H]1CCOC1 | < 0.1 µM
2 | CN(C)Cc1cc(Nc2ccc(-c3cnc4cc(F)ccn34)c3c2C(=O)NC3)ncc1C1(O)CCOCC1 | in the range around 0.55 µM
3 | CO[C@H]1CCC(c2ccc(Nc3ccc(-c4cnc5cc(F)ccn45)c4c3C(=O)NC4)nc2CN(C)C)C1 (stereo partly drawn) | < 0.1 µM
